Assay [1] has as its target T1, 5-hydroxytryptamine receptor 1A (Rattus norvegicus, UniProt P19327).
T1 sequence (P19327 whole entry): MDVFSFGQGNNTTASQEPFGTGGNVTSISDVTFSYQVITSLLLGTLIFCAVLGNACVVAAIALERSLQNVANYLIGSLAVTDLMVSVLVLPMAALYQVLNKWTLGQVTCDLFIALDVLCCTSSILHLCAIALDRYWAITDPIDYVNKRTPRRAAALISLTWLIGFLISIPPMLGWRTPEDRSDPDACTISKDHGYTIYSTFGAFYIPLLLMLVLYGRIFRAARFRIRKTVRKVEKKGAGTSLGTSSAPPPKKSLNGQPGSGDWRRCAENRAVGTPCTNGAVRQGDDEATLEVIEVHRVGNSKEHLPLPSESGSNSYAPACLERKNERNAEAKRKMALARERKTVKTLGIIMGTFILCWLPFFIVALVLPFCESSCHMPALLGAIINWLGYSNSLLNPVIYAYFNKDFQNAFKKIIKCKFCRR
The class given is cell membranes, Membrane.
Description: Binding affinity of compound towards 5-hydroxytryptamine 1A receptor in rat striatal membranes by [3H]OH-DPAT displacement.

In assay [2] the target is T1, 5-hydroxytryptamine receptor 1A. Kind of assay: Binding affinity of compound towards 5-HT 1A receptor by measuring ability to displace [3H]OH-DPAT from 5-hydroxytryptamine 1A receptor in rat hippocampal membranes.
Assay [3] shares this target. Described as above. This is another data set of the same source.

pKi: −log10 of the molar value.

What is called pKi is the Ki on a negative log10 scale, so that one unit is a factor of ten. Read a high pKi as a low Ki. Compound `O=C1c2ccccc2C(=O)N1CCCCNCCCOc1cccc2ccccc12` gave a pKi in assay [1] of 7.60.
Consider `COc1ccccc1CCCN(C)C`, for which the pKi in assay [1] was 5.49.
The compound `CN(CCCCN1C(=O)c2ccccc2C1=O)CCc1ccccc1` gave a pKi in assay [1] of 6.52.
Compound `COc1ccc2[nH]cc(CCNCCCCN3C(=O)c4ccccc4C3=O)c2c1` showed a pKi in assay [1] of 7.70.
On to `COc1ccccc1CCCNCCCCN1C(=O)c2ccccc2C1=O`, for which the pKi in assay [1] was 6.96.
Regarding `COc1ccccc1CCCN(C)CCCCN1C(=O)c2ccccc2C1=O`, in assay [1], the negative logarithm of the Ki (pKi) is 6.77.
`O=C1c2ccccc2C(=O)N1CCCNCCCOc1cccc2ccccc12` showed a pKi in assay [2] of 7.35.
On the same count and under the same terms, next, `CN(C)CCc1ccccc1`: 6.07.
Consider `COc1ccc2cccc(N3CCNCC3)c2c1`, for which the pKi in assay [1] was 8.48.
Take `O=C1c2ccccc2C(=O)N1CCNCCCOc1cccc2ccccc12`: in assay [3], the pKi was 5.88.
In turn, `COc1cccc2c1CC(NCCCN1C(=O)c3ccccc3C1=O)CC2` (stereo not given) showed a pKi in assay [1] of 7.32.
On the same count and under the same terms, in the case of `COc1cccc2c1CC(NCCN1C(=O)c3ccccc3C1=O)CC2` (stereo not given) it was 6.60.
`COc1ccccc1N1CCN(CCCCCN2C(=O)c3ccccc3C2=O)CC1`: the pKi in assay [2] is 8.30.
The compound `COc1ccc2[nH]cc(CCN(C)C)c2c1` [MEBUFOTENIN] gave a pKi in assay [1] of 8.00.
`COc1ccc2ccccc2c1N1CCNCC1` gave a negative-log Ki (pKi) in assay [1] of 7.47.

(Values after ChEMBL document CHEMBL1124566, “N-(phthalimidoalkyl) derivatives of serotonergic agents: a common interaction at 5-HT1A serotonin binding sites?” (J Med Chem, 1989).)
